#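 Dose response: 5 concentrations. Exposure: 48 h. Format: 96-well plates. Endpoint: linear interpolation; highest concentration if not reached. The concentration for 50% growth inhibition is given as GI50. The concentration for full growth arrest is given as TGI.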
# Experiments:
# Assay in all cases: inhibition of tumour cell growth, NCI panel, 48 h
# [1] = tested on: IGROV1 ovarian
# [2] = tested on: COLO 205 colon
# [3] = tested on: UACC-62 melanoma
# [4] = tested on: UO-31 renal
# [5] = tested on: K-562 leukemia
# [6] = tested on: OVCAR-8 ovarian
# [7] = tested on: SK-OV-3 ovarian
# [8] = tested on: RPMI-8226 leukemia
# [9] = tested on: SK-MEL-28 melanoma
# [10] = tested on: SR leukemia
SMILES,TGI [1] [µM],TGI [2] [µM],TGI [3] [µM],TGI [4] [µM],TGI [5] [µM],TGI [6] [µM],TGI [7] [µM],TGI [8] [µM],GI50 [9] [µM],TGI [9] [µM],GI50 [2] [µM],GI50 [3] [µM],GI50 [10] [µM],TGI [10] [µM],GI50 [4] [µM],GI50 [5] [µM],GI50 [6] [µM],GI50 [7] [µM],GI50 [8] [µM],GI50 [1] [µM]
Cc1[nH]nc(C(=O)N/N=C/c2cccs2)c1N=NN(C)C,31.1,28.2,51.7,21.9,> 100,33.1,43.7,89.7,,,,,,,,,,,,
COc1cc(C=NCC(=O)CSC(c2ccccc2)c2ccccc2)cc(OC)c1OC,,33,> 100,> 100,93.7,> 100,76,39.9,23.8,> 100,4.96,19.2,14,> 100,22.6,8.63,19.2,23.3,5.18,
NC(=O)c1ccc(NC(=O)c2oc3ccccc3c2-c2cnn(-c3ccccc3)c2)cc1,,,,> 100,> 100,> 100,> 100,,> 100,> 100,,,> 100,> 100,> 100,> 100,> 100,> 100,,
O=[N+]([O-])C(=C(c1ccccc1)c1ccccc1)[N+](=O)[O-],23.2,24.9,9.56,36.6,> 100,21.5,,6.43,,20.1,,,,28.5,,,,,,
Clc1cccc(C2SCc3nc4ccccc4n32)c1Cl (stereo not given),33.6,36,34.3,25.8,45,37,34.9,90.6,,35.9,,,,,,,,,,
Cc1ccc(C)c(NC(=O)CCc2n[nH]c(=S)o2)c1,> 100,> 100,> 100,> 100,> 100,> 100,,,,> 100,,,,> 100,,,,,,
COS(=O)CCOC(=O)c1ccccc1SSc1ccccc1C(=O)OCCS(=O)OC (stereo not given),> 100,49.1,51.5,43.5,69.6,81.2,> 100,57.7,,> 100,,,,,,,,,,
c1ccc(CN(Cc2ccccn2)Cn2cccn2)nc1,,> 100,44.4,> 100,> 100,> 100,> 100,75.6,,> 100,,,,> 100,,,,,,
Nc1ccccc1C#Cc1ccccc1C#CCCCCO,46.7,59.3,32.5,54.8,58.3,49.4,> 100,72.2,28.4,49.7,23.7,11.9,,,20.3,19.1,20.3,> 100,29.8,17.5
CC(C)c1cc2c(O)c(c1)Cc1cc(C(C)C)cc(c1O)Cc1cc(C(C)C)cc(c1O)Cc1cc(C(C)C)cc(c1O)Cc1cc(C(C)C)cc(c1O)Cc1cc(C(C)C)cc(c1O)C2,> 100,> 100,> 100,> 100,> 100,> 100,,> 100,,> 100,,,,,,,,,,
COCCOCCOCCOCCOc1ccc2c(c1)C(=O)c1nc3ncccc3c(=O)n1-2,,3.35,1.07,6.21,,6.89,6.99,4.94,0.765,2.03,1.88,0.371,2.25,> 100,1.53,,1.57,2.81,1.86,
C(=C1/CCCCC([n+]2ccccc2)=N1)/c1ccccc1,,> 100,> 100,> 100,> 100,> 100,> 100,> 100,,> 100,,,,> 100,,,,,,
C1CCN2CC34CC(CC5CCCN(C6CCCC3N6)C54)C2C1 (stereo not given),> 100,> 100,> 100,,> 100,> 100,> 100,> 100,,> 100,,,,> 100,,,,,,
S=C1OC2C3C4CC5C3C(O1)C1C5C4C21 (stereo not given),> 100,> 100,> 100,> 100,,> 100,> 100,> 100,,> 100,,,,> 100,,,,,,
OCC(O)C(OC1OC(CO)C(O)C(O)C1O)c1nn(-c2ccc(F)cc2)c2nc3cc(Cl)c(Cl)cc3cc12 (stereo not given),,,> 100,> 100,> 100,> 100,> 100,> 100,,> 100,,,,> 100,,,,,,
Cc1ccc(C)c2sc3cc(=O)ccc-3nc12,> 100,> 100,33.6,> 100,79.6,> 100,> 100,,,> 100,,,,> 100,,,,,,
COc1cc(Nc2ncc(-c3ccccc3)o2)cc(OC)c1OC,> 25,> 25,> 25,> 25,> 25,> 25,> 25,> 25,4.38,> 25,2.15,2.24,,,1.84,0.401,8.3,2.89,16.3,1.28
Cc1ccc(NC(=O)CCC(=O)C(C#N)c2ccc(Cl)cc2)cc1C (stereo not given),> 100,,> 100,> 100,> 100,> 100,,> 100,,> 100,,,,,,,,,,
CC1=C[C@H]2C[C@@]3(C)O[C@@H]([C@]4(C)CC[C@H]([C@@H](C)C(=O)O)OO4)CC3C(C)(C)[C@H]2CC1 (stereo not given in full),,3.31,,2.59,,3.54,,,,2.95,,,,,,,,,,
CCn1c(-c2cc3ccccc3cc2OC(=O)c2ccccc2)n[nH]c1=S,8.54,> 50,> 50,> 50,> 50,,> 50,23.8,> 50,> 50,> 50,28.8,19.8,> 50,21.1,22.5,,> 50,9.96,1.51

# Reference: PubChem BioAssay (NCI)
